Reference: ChEMBL document CHEMBL5291721, “A preclinical secondary pharmacology resource illuminates target-adverse drug reaction associations of marketed drugs” (Nat Commun, 2023)

Assays:
[1] = biological target: T1, Alpha-1A adrenergic receptor (Homo sapiens, UniProt P35348); format: functional, cell-based
T1 sequence (P35348 whole entry): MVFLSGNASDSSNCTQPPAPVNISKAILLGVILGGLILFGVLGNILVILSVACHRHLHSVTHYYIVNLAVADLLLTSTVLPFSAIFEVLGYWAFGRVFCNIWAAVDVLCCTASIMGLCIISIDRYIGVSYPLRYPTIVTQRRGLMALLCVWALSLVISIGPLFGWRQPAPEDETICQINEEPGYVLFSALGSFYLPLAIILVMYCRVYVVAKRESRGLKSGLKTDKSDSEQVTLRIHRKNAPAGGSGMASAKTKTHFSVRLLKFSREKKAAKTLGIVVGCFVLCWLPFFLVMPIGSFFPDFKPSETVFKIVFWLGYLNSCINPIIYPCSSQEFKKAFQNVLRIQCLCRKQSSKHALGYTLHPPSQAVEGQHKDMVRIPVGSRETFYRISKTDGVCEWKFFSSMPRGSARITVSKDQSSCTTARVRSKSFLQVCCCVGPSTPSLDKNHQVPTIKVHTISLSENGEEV

[2] = biological target: T1, Alpha-1A adrenergic receptor
[3] = biological target: T2, Alpha-2A adrenergic receptor (Homo sapiens, UniProt P08913)
T2 sequence (P08913 whole entry): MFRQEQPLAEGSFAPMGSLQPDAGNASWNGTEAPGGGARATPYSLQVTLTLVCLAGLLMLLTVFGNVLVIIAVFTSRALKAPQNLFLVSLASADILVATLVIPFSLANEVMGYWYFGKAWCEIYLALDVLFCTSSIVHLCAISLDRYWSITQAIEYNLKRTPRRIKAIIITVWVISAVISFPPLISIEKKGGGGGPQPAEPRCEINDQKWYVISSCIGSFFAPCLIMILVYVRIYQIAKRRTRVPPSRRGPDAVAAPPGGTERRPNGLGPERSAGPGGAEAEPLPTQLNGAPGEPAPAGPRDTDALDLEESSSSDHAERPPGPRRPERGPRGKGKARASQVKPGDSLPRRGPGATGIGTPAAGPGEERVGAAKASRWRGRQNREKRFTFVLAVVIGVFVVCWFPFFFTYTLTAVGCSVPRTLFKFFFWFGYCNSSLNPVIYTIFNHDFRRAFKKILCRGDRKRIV

[4] = biological target: Beta-2 adrenergic receptor (Homo sapiens, UniProt P07550)
Chain of Beta-2 adrenergic receptor (P07550 whole entry): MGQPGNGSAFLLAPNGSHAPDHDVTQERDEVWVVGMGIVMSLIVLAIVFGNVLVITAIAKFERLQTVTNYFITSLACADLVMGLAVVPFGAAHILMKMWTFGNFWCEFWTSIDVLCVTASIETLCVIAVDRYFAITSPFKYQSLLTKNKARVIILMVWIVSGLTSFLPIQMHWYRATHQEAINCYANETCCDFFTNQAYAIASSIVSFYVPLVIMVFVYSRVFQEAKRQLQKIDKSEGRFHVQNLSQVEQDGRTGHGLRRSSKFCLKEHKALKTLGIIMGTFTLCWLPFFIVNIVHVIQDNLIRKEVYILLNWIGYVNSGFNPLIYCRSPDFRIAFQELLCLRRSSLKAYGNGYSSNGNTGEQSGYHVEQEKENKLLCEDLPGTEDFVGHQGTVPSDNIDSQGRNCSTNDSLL

Cannabinoid receptor 1 = Cannabinoid receptor 1 (Homo sapiens, UniProt P21554); format: functional, cell-based
Chain of Cannabinoid receptor 1 (P21554 whole entry): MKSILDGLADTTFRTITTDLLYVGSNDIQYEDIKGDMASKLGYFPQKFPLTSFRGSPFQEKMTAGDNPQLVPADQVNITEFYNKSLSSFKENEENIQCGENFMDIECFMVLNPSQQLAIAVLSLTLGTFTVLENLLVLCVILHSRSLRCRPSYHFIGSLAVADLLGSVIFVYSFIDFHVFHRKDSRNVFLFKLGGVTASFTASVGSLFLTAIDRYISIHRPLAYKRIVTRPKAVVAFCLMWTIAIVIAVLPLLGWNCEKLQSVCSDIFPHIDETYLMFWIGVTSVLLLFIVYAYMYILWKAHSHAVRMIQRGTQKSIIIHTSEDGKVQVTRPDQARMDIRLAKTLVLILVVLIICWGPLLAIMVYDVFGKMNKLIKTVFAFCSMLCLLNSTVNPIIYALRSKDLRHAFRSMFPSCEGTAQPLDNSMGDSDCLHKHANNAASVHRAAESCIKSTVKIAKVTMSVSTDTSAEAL

D(1A) dopamine receptor = D(1A) dopamine receptor (Homo sapiens, UniProt P21728)
Chain of D(1A) dopamine receptor (P21728 whole entry): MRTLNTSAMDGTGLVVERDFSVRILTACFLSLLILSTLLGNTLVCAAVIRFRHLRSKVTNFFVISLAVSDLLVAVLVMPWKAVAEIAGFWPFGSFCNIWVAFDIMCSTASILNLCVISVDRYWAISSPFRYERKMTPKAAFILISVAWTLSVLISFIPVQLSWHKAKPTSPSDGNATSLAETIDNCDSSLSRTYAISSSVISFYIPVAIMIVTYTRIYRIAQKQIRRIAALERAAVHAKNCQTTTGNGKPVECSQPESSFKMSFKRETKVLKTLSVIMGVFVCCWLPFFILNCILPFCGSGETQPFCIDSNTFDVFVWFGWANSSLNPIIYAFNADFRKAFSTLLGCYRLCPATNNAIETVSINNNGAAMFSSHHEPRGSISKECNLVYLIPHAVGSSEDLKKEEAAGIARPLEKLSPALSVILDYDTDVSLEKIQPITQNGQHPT

Histamine H3 receptor [5] = biological target: T3, Histamine H3 receptor (Homo sapiens, UniProt Q9Y5N1)
T3 sequence (Q9Y5N1 whole entry): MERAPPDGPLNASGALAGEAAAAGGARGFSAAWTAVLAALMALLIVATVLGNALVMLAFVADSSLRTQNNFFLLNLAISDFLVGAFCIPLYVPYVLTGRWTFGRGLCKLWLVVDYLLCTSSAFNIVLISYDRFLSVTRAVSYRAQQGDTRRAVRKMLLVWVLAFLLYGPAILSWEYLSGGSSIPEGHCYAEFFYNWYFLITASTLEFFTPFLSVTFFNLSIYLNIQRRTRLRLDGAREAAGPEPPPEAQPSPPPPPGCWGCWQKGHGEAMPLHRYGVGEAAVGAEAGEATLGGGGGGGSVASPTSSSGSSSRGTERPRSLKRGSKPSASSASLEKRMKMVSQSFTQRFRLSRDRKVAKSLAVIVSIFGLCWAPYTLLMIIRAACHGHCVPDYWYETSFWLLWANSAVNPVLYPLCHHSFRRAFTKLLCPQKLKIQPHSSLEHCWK

Melanocortin receptor 4 = Melanocortin receptor 4 (Homo sapiens, UniProt P32245)
Chain of Melanocortin receptor 4 (P32245 whole entry): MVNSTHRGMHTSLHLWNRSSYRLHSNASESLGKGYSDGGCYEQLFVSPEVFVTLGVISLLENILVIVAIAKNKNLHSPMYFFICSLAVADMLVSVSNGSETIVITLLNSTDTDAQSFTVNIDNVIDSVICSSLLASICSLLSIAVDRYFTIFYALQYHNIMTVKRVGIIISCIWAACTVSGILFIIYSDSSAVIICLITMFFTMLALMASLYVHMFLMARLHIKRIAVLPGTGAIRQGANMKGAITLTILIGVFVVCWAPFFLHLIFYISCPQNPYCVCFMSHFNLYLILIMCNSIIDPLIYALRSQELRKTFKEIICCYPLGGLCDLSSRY

[6] = biological target: Kappa-type opioid receptor (Homo sapiens, UniProt P41145)
Chain of Kappa-type opioid receptor (P41145 whole entry): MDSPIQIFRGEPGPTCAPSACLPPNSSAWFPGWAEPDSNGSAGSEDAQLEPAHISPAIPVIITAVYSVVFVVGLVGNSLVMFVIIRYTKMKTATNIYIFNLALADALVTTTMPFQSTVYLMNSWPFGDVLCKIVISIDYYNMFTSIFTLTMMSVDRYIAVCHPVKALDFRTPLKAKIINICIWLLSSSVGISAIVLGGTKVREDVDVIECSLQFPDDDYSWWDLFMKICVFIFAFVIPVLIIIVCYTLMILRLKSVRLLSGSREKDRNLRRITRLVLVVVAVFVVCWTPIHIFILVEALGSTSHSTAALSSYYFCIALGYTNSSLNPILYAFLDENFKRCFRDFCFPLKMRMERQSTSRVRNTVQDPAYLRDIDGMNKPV

Thromboxane A2 receptor [7] = biological target: T4, Thromboxane A2 receptor (Homo sapiens, UniProt P21731); format: functional, cell-based
T4 sequence (P21731 whole entry): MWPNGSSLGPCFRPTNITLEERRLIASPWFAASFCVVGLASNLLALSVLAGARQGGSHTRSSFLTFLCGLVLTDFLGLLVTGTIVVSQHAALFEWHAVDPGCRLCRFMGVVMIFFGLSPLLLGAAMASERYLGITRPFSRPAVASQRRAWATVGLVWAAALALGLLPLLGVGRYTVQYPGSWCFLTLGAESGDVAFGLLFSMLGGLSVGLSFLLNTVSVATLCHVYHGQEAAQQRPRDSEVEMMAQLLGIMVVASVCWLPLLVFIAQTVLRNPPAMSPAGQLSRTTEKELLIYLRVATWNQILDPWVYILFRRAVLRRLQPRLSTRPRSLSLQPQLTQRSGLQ

Thromboxane A2 receptor [8] = biological target: T4, Thromboxane A2 receptor
Histamine H3 receptor [9] = biological target: T3, Histamine H3 receptor; remark: listed apart in the source
[10] = biological target: T5, Alpha-2B adrenergic receptor (Homo sapiens, UniProt P18089)
T5 sequence (P18089 whole entry): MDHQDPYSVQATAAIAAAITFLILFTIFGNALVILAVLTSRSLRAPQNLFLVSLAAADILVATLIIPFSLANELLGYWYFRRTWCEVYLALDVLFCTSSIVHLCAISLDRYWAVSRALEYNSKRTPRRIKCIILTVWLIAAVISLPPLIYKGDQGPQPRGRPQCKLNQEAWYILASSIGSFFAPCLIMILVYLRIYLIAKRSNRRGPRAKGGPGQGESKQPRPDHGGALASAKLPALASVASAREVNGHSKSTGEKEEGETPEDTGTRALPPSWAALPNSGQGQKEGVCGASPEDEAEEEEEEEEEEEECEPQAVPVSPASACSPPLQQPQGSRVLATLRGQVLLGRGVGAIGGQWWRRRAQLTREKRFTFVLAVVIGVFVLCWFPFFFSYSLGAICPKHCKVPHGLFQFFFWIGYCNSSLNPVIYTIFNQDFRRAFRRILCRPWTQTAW

[11] = biological target: T6, Muscarinic acetylcholine receptor M1 (Homo sapiens, UniProt P11229); format: functional
T6 sequence (P11229 whole entry): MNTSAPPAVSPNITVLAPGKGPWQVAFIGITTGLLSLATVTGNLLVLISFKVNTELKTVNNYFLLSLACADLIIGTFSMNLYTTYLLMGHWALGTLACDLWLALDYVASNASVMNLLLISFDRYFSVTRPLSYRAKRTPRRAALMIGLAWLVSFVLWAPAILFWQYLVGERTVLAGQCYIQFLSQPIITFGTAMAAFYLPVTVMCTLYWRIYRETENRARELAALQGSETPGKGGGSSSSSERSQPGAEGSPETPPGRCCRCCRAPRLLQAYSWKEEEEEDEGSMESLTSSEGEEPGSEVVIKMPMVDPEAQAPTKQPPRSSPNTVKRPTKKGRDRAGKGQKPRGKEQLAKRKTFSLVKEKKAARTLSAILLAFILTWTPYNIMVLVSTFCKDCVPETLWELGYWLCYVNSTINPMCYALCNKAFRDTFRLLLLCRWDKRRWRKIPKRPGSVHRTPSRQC
Further: assay procedure not described here.

Row | Compound | AC50 [1] | AC50 [2] | AC50 [3] | AC50 [4] | AC50 (Cannabinoid receptor 1) | AC50 (D(1A) dopamine receptor) | AC50 (Histamine H3 receptor [5]) | AC50 (Melanocortin receptor 4) | AC50 [6] | AC50 (Thromboxane A2 receptor [7]) | AC50 (Thromboxane A2 receptor [8]) | AC50 (Histamine H3 receptor [9]) | AC50 [10] | AC50 [11]
1 | Oc1ncnc2[nH]ncc12 [ALLOPURINOL] | > 30 µM | 2.88 µM | > 30 µM | > 10 µM | > 30 µM | > 30 µM | > 30 µM | > 30 µM | > 10 µM | > 30 µM | > 30 µM | > 30 µM | – | –
2 | COC(=O)N[C@H](C(=O)N[C@@H](Cc1ccccc1)[C@@H](O)CN(Cc1ccc(-c2ccccn2)cc1)NC(=O)[C@@H](NC(=O)OC)C(C)(C)C)C(C)(C)C [ATAZANAVIR] | – | > 10 µM | – | > 10 µM | – | – | – | > 30 µM | 1.06 µM | – | > 30 µM | > 10 µM | > 10 µM | > 10 µM
3 | CC(C)NCC(O)COc1ccc(COCCOC(C)C)cc1 (stereo unspecified) [BISOPROLOL] | – | > 10 µM | – | – | – | – | – | > 30 µM | > 10 µM | – | > 30 µM | > 10 µM | > 10 µM | > 10 µM
4 | CN(CCOc1ccc(NS(C)(=O)=O)cc1)CCc1ccc(NS(C)(=O)=O)cc1 [DOFETILIDE] | > 30 µM | > 10 µM | > 30 µM | > 10 µM | > 30 µM | > 30 µM | > 30 µM | > 30 µM | > 10 µM | > 30 µM | > 30 µM | > 10 µM | > 10 µM | > 10 µM
5 | COC(=O)[C@@H]1CC2=CC(=O)CC[C@]2(C)[C@@]23O[C@@H]2C[C@@]2(C)[C@@H](CC[C@@]24CCC(=O)O4)[C@H]13 [EPLERENONE] | > 30 µM | > 10 µM | – | > 10 µM | > 30 µM | – | – | > 30 µM | > 10 µM | – | > 30 µM | > 30 µM | > 30 µM | > 30 µM
6 | C[C@@H]1O[C@@H]1P(=O)(O)O [FOSFOMYCIN] | – | > 10 µM | – | > 10 µM | – | – | – | > 10 µM | > 10 µM | – | > 10 µM | – | > 10 µM | > 10 µM
7 | CN1C(=O)CC(C)(c2ccccc2)C1=O (stereo unspecified) [METHSUXIMIDE] | – | > 30 µM | – | > 10 µM | – | – | – | > 10 µM | > 10 µM | – | > 10 µM | – | > 10 µM | > 10 µM
8 | CCc1nn(CCCN2CCN(c3cccc(Cl)c3)CC2)c(=O)n1CCOc1ccccc1 [NEFAZODONE] | 2.2 µM | 0.833 µM | – | > 10 µM | > 30 µM | – | – | > 30 µM | 5.46 µM | – | 23.9 µM | – | 0.34 µM | > 10 µM
9 | CC(C(=O)O)c1ccc(N2CC=CC2)c(Cl)c1 (stereo unspecified) [PIRPROFEN] | > 30 µM | > 10 µM | > 30 µM | > 10 µM | > 30 µM | > 30 µM | > 30 µM | > 30 µM | > 10 µM | > 30 µM | > 30 µM | > 10 µM | > 10 µM | > 10 µM
10 | NC(=O)c1cnccn1 [PYRAZINAMIDE] | > 30 µM | > 10 µM | > 30 µM | > 30 µM | > 30 µM | > 30 µM | > 30 µM | 10.2 µM | > 30 µM | > 30 µM | > 30 µM | > 30 µM | – | –
11 | CC(C(=O)O)c1ccc(C(=O)c2cccs2)cc1 (stereo unspecified) [SUPROFEN] | – | > 10 µM | – | > 10 µM | – | – | – | > 10 µM | > 10 µM | – | > 10 µM | > 10 µM | > 10 µM | > 10 µM
12 | Cc1ccc(C(=O)c2cc(O)c(O)c([N+](=O)[O-])c2)cc1 [TOLCAPONE] | – | 14.6 µM | – | > 10 µM | – | – | – | > 10 µM | > 10 µM | – | > 10 µM | > 10 µM | > 10 µM | > 10 µM
13 | O=C(CCCCCCC(=O)Nc1ccccc1)NO [VORINOSTAT] | > 30 µM | > 10 µM | – | > 10 µM | > 30 µM | – | – | > 30 µM | > 30 µM | – | > 30 µM | > 30 µM | > 30 µM | > 30 µM
